Measured values: the NIST ThermoML archive (doi:10.1021/acs.jced.8b00028)

Conditions: 101 kPa, Liquid

OCCO [1,2-ethanediol]
mass density [kg/m3]
Conditions | Buoyancy - hydrostatic balance | Pycnometric method
273.15 K | 1127.2 | 1127.05
283.15 K | 1120.58 | 1120.5
293.15 K | 1113.84 | 1113.84
303.15 K | 1106.98 | 1107.07
313.15 K | 1099.99 | 1100.19
323.15 K | 1092.88 | 1093.2
333.15 K | 1085.65 | 1086.11
343.15 K | 1078.29 | 1078.91
353.15 K | 1070.8 | 1071.6
363.15 K | 1063.2 | 1064.18
373.15 K | 1055.47 | –
383.15 K | 1047.62 | –
393.15 K | 1039.64 | –
403.15 K | 1031.53 | –
413.15 K | 1023.31 | –
423.15 K | 1014.96 | –
433.15 K | 1006.48 | –
443.15 K | 997.88 | –
453.15 K | 989.16 | –
463.15 K | 980.31 | –
473.15 K | 971.34 | –

CC(O)CO (configuration not stated) [1,2-propanediol]
mass density [kg/m3]
Conditions | Buoyancy - hydrostatic balance | Pycnometric method
273.15 K | 1051.77 | 1052.17
283.15 K | 1044.65 | 1044.74
293.15 K | 1037.13 | 1037.22
303.15 K | 1029.87 | 1029.64
313.15 K | 1022.37 | 1021.98
323.15 K | 1014.64 | 1014.25
333.15 K | 1006.75 | 1006.45
343.15 K | 998.71 | 998.57
353.15 K | 990.77 | 990.62
363.15 K | 982.38 | 982.6
373.15 K | 973.81 | –
383.15 K | 965.04 | –
393.15 K | 956.09 | –
403.15 K | 946.95 | –
413.15 K | 937.62 | –
423.15 K | 928.1 | –
433.15 K | 918.39 | –
443.15 K | 908.5 | –
453.15 K | 898.41 | –
463.15 K | 888.14 | –

CCCCCCC [heptane]
mass density [kg/m3]
Conditions | 293.15 K | 301.62 K | 310.71 K | 319.85 K | 329.04 K | 338.26 K | 347.53 K | 356.84 K
Buoyancy - hydrostatic balance | 683.65 | 675.96 | 668.05 | 660.16 | 652.58 | 644.01 | 635.57 | 627.05
Pycnometric method | 683.67 | 675.75 | 667.37 | 659.85 | 651.92 | 644.32 | 635.91 | 627.85
